Assay results as given in patent publication US12491180B2, “Application of compound in treating pneumonia” (SHENZHEN OPTIMUM BIOLOGICAL TECHNOLOGY CO., LTD., priority 2019, dated 2025).
Values after ≈ are worked out from the molar mass of the structure shown. Like-named read-outs stand apart in the source and are kept apart here.

Key:
[1] = system: Enterobacter aerogenes 8193; experiment: MIC, solid dilution method; type: cell-based; settings: Klebsiella aerogenes
Description: CRE Enterobacter aerogenes 8193, a total of 1 strain;
(§1) The above-mentioned glycerol-preserved strains were taken out from the −80° C. refrigerator, streaked and inoculated on MHA plates, labeled, and cultured overnight in a 37° C. incubator.
(§2) The inoculum was prepared directly from bacterial suspension, and several recovered colonies were picked and directly prepared into a bacterial suspension with a turbidity of No. 0.5 McFarland units in normal saline, and a 10-fold dilution was made during inoculation.
(§3) 6 bottles of MHA culture medium 500 mL/bottle were prepared, and the pH was adjusted to 7.2-7.4, sterilized at 121° C. for 15 min, and the medium was placed in a 55° C. water bath to keep warm.
(§4) Sterile blank petri dishes were taken, and marked with each FL drug/concentration according to 2-fold dilution, and 10 concentrations of each drug starting from 8 μg/mL were tested.
(§5) […]; 20 mL was aspirated and added to a petri dish consistent with the mark, and then 20 mL of MHA culture medium was added to the rest of the drug-containing culture medium, mixed evenly, that is, the 2-fold diluted drug-containing culture medium; 20 mL was aspirated and added to the petri dish consistent with the mark, and then diluted to the 10th concentration and the […] respectively by repeating the above-mentioned steps, and then poured into the petri dish.
(§6) 4 bacterial control petri dishes without drug were prepared at the same time as a control.
(§7) The positioning needle and the inoculation needle were installed according to the order of placement of the colony on the inoculation plate. After inoculation, a bacterial solution circle was formed on the petri dish. After the bacterial solution was absorbed by the agar, the petri dish was placed in an incubator at 37° C. for overnight incubation (16-20 hours), and then taken out.
(§8) The minimum inhibitory concentrations of the compounds against the CRE and CSE strains were determined by the solid dilution method, and the results are shown in Tables 3 and 4.

[2] = system: E. ae 14186; experiment: MIC, solid dilution method; type: cell-based, Enterobacter aerogenes; settings: Klebsiella aerogenes, 14186
Description: as §1, §2, §3, §4, §5, §6, §7, §8

[3] = system: Enterobacter cloacae 11090; experiment: MIC, solid dilution method; type: cell-based
Description: as §1, §2, §4, §6, §7

[4] = system: Enterobacter cloacae 11699; experiment: MIC, solid dilution method; type: cell-based
Description: as §1, §2, §4, §6, §7

[5] = system: Enterobacter cloacae 14653; experiment: MIC, solid dilution method; type: cell-based
Description: as §1, §2, §4, §6, §7

[6] = system: E. coli 11256; experiment: MIC, solid dilution method; type: cell-based; settings: Escherichia coli
Description: as §1, §2, §3, §4, §5, §6, §7, §8

[7] = system: Escherichia coli 11119; experiment: MIC, solid dilution method; type: cell-based
Description: as §1, §2, §3, §4, §5, §6, §7, §8

[8] = system: Escherichia coli 13897; experiment: MIC, solid dilution method; type: cell-based
Description: as §1, §2, §3, §4, §5, §6, §7, §8

[9] = system: Escherichia coli 14828; experiment: MIC, solid dilution method; type: cell-based
Description: as §1, §2, §3, §4, §5, §6, §7, §8

[10] = system: Klebsiella oxytoca 12391; experiment: MIC, solid dilution method; type: cell-based
Description: as §1, §2, §3, §4, §5, §6, §7, §8

[11] = system: Klebsiella oxytoca 14151; experiment: MIC, solid dilution method; type: cell-based
Description: as §1, §2, §3, §4, §5, §6, §7, §8

[12] = system: Klebsiella oxytoca 14153; experiment: MIC, solid dilution method; type: cell-based
Description: as §1, §2, §3, §4, §5, §6, §7, §8

[13] = system: Klebsiella oxytoca 6777; experiment: MIC, solid dilution method; type: cell-based
Description: as §1, §2, §3, §4, §5, §6, §7, §8

[14] = system: Escherichia coli ATCC25922; experiment: MIC, solid dilution method; type: cell-based
Description: (§9) (1) Standard strains: Escherichia coli BAA-2452, Escherichia coli ATCC25922, Klebsiella pneumoniae BAA-1705; all purchased from ATCC.
as §1, §2, §3, §4, §5, §6, §7, §8

[15] = system: Escherichia coli BAA-2452; experiment: MIC, solid dilution method; type: cell-based
Description: as §9, §1, §2, §3, §4, §5, §6, §7, §8

[16] = system: Klebsiella pneumoniae BAA-1705; experiment: MIC, solid dilution method; type: cell-based
Description: as §9, §1, §2, §3, §4, §5, §6, §7, §8

[17] = system: Klebsiella pneumoniae 11544; experiment: MIC, solid dilution method; type: cell-based
Description: (§10) (2) Clinical isolated strains: CRE Klebsiella pneumoniae 5846, 11544, 12559, 13249 and CSE Klebsiella pneumoniae 8733, a total of 5 strains;
as §1, §2, §3, §4, §5, §6, §7, §8

[18] = system: Klebsiella pneumoniae 12559; experiment: MIC, solid dilution method; type: cell-based
Description: as §10, §1, §2, §3, §4, §5, §6, §7, §8

[19] = system: Klebsiella pneumoniae 13249; experiment: MIC, solid dilution method; type: cell-based
Description: as §10, §1, §2, §3, §4, §5, §6, §7, §8

[20] = system: Klebsiella pneumoniae 5846; experiment: MIC, solid dilution method; type: cell-based
Description: as §10, §1, §2, §3, §4, §5, §6, §7, §8

[21] = system: Klebsiella pneumoniae 8733; experiment: MIC, solid dilution method; type: cell-based
Description: as §10, §1, §2, §3, §4, §5, §6, §7, §8

[22] = system: Citrobacter freundii 7646; experiment: MIC, solid dilution method; type: cell-based
Description: (§11) CRE Citrobacter freundii 9434, 9484 and CSE Citrobacter freundii 7646, a total of 3 strains;
as §1, §2, §3, §4, §5, §6, §7, §8

[23] = system: Citrobacter freundii 9434; experiment: MIC, solid dilution method; type: cell-based; settings: 9434
Description: as §11, §1, §2, §3, §4, §5, §6, §7, §8

[24] = system: Citrobacter freundii 9484; experiment: MIC, solid dilution method; type: cell-based
Description: as §11, §1, §2, §3, §4, §5, §6, §7, §8

[25] = system: Acinetobacter baumannii 6383; experiment: MIC, solid dilution method; type: cell-based
Description: (§12) CRE Acinetobacter baumannii 8476, 6383, a total of 2 strains; CRE Serratia marcescens 14541, a total of 1 strain; all collected in the Department of Infectious Diseases, West China Hospital, Chengdu, Sichuan Province, and kept in our laboratory.
as §1, §2, §3, §4, §5, §6, §7, §8

[26] = system: Acinetobacter baumannii 8476; experiment: MIC, solid dilution method; type: cell-based
Description: as §12, §1, §2, §3, §4, §5, §6, §7, §8

[27] = system: Serratia marcescens 14541; experiment: MIC, solid dilution method; type: cell-based; settings: 14541
Description: as §12, §1, §2, §3, §4, §5, §6, §7, §8

[28] = system: 16 clinical CRE strains; experiment: MIC50, MIC90 and MIC range against 16 clinical CRE strains; type: cell-based
Description: as §1, §2, §3, §4, §5, §6, §7, §8

CC1(C)[C@H](NC(=O)/C(=N\O[C@@H](COc2ccc3c(c2)CN(C(=N)N(CCN)CCN)C3)C(=O)O)c2csc(N)n2)C(=O)N1OS(=O)(=O)O [Compound 45]
MIC [1]; 8193: 4 µg/mL (≈ 5.61 µM)
MIC [2]: 2 µg/mL (≈ 2.81 µM)
MIC [3]; 11090: 4 µg/mL (≈ 5.61 µM)
MIC [4]; 11699: 0.25 µg/mL (≈ 0.351 µM)
MIC [5]; 14653: 2 µg/mL (≈ 2.81 µM)
MIC [6]; 11256: 0.25 µg/mL (≈ 0.351 µM)
MIC [7]; 11119: 8 µg/mL (≈ 11.2 µM)
MIC [8]; 13897: 0.5 µg/mL (≈ 0.701 µM)
MIC [9]; 14828: 2 µg/mL (≈ 2.81 µM)
MIC [10]; 12391: 1 µg/mL (≈ 1.4 µM)
MIC [11]; 14151: 2 µg/mL (≈ 2.81 µM)
MIC [12]; 14153: 2 µg/mL (≈ 2.81 µM)
MIC [13]; 6777: 2 µg/mL (≈ 2.81 µM)
MIC ([14]; ATCC25922): 0.125 µg/mL (≈ 0.175 µM)
MIC ([15]; BAA2452): 1 µg/mL (≈ 1.4 µM)
MIC ([16]; BAA1705): 2 µg/mL (≈ 2.81 µM)
MIC [17]; 11544: > 8 µg/mL
MIC [18]; 12559: 0.5 µg/mL (≈ 0.701 µM)
MIC [19]; 13249: > 8 µg/mL
MIC [20]; 5846: 1 µg/mL (≈ 1.4 µM)
MIC [21]; 8733: 0.5 µg/mL (≈ 0.701 µM)
MIC [22]; 7646: 1 µg/mL (≈ 1.4 µM)
MIC [23]: 2 µg/mL (≈ 2.81 µM)
MIC [24]; 9484: 0.25 µg/mL (≈ 0.351 µM)
MIC [25]; 6383: > 8 µg/mL
MIC [26]; 8476: > 8 µg/mL
MIC [27]: > 8 µg/mL
MIC50 [28]: 4 µg/mL (≈ 5.61 µM)
MIC90 [28]: > 8 µg/mL

C[C@@H](O)[C@H]1C(=O)N2C(C(=O)O)=C(S[C@@H]3CN[C@H](C(=O)N(C)C)C3)[C@H](C)[C@H]12 [Meropenem, reference compound]
MIC ([1]; E. ae 8193, CRE clinical isolate, MHA agar, 37° C., 16-20 hours, read-out: MIC): 16 µg/mL (≈ 41.7 µM)
MIC [2]: 0.125 µg/mL (≈ 0.326 µM)
MIC ([3]; E. cl 11090, CRE clinical isolate, MHA agar, 37° C., 16-20 hours, read-out: MIC): 0.5 µg/mL (≈ 1.3 µM)
MIC ([4]; E. cl 11699, CSE clinical isolate, MHA agar, 37° C., 16-20 hours, read-out: MIC): < 0.015 µg/mL
MIC ([5]; E. cl 14653, CRE clinical isolate, MHA agar, 37° C., 16-20 hours, read-out: MIC): 64 µg/mL (≈ 167 µM)
MIC ([6]; E. coli 11256, MHA agar, 37° C., 16-20 hours, read-out: MIC): < 0.015 µg/mL
MIC ([7]; E. coli 11119, CRE clinical isolate, MHA agar, 37° C., 16-20 hours, read-out: MIC): 16 µg/mL (≈ 41.7 µM)
MIC ([8]; E. coli 13897, CRE clinical isolate, MHA agar, 37° C., 16-20 hours, read-out: MIC): 4 µg/mL (≈ 10.4 µM)
MIC ([9]; E. coli 14828, CRE clinical isolate, MHA agar, 37° C., 16-20 hours, read-out: MIC): 8 µg/mL (≈ 20.9 µM)
MIC ([10]; K. ox 12391, CRE clinical isolate, MHA agar, 37° C., 16-20 hours, read-out: MIC): 2 µg/mL (≈ 5.22 µM)
MIC ([11]; K. ox 14151, CRE clinical isolate, MHA agar, 37° C., 16-20 hours, read-out: MIC): 16 µg/mL (≈ 41.7 µM)
MIC ([12]; K. ox 14153, CRE clinical isolate, MHA agar, 37° C., 16-20 hours, read-out: MIC): 32 µg/mL (≈ 83.4 µM)
MIC ([13]; K. ox 6777, CRE clinical isolate, MHA agar, 37° C., 16-20 hours, read-out: MIC): 16 µg/mL (≈ 41.7 µM)
MIC ([14]; E. coli ATCC25922, standard strain, MHA agar, 37° C., 16-20 hours, read-out: MIC): < 0.015 µg/mL
MIC ([15]; BAA2452, E. coli BAA-2452, standard strain, MHA agar, 37° C., 16-20 hours, read-out: MIC): 16 µg/mL (≈ 41.7 µM)
MIC ([16]; BAA1705, K.p BAA-1705, standard strain, MHA agar, 37° C., 16-20 hours, read-out: MIC): 16 µg/mL (≈ 41.7 µM)
MIC ([17]; K.p 11544, CRE clinical isolate, MHA agar, 37° C., 16-20 hours, read-out: MIC): 32 µg/mL (≈ 83.4 µM)
MIC ([18]; K.p 12559, CRE clinical isolate, MHA agar, 37° C., 16-20 hours, read-out: MIC): 4 µg/mL (≈ 10.4 µM)
MIC ([19]; K.p 13249, CRE clinical isolate, MHA agar, 37° C., 16-20 hours, read-out: MIC): 64 µg/mL (≈ 167 µM)
MIC ([20]; K.p 5846, CRE clinical isolate, MHA agar, 37° C., 16-20 hours, read-out: MIC): 8 µg/mL (≈ 20.9 µM)
MIC ([21]; K.p 8733, CSE clinical isolate, MHA agar, 37° C., 16-20 hours, read-out: MIC): 0.03 µg/mL (≈ 0.0782 µM)
MIC ([22]; C.f 7646, CSE clinical isolate, MHA agar, 37° C., 16-20 hours, read-out: MIC): < 0.015 µg/mL
MIC [23]: > 128 µg/mL
MIC ([24]; C.f 9484, CRE clinical isolate, MHA agar, 37° C., 16-20 hours, read-out: MIC): 0.06 µg/mL (≈ 0.156 µM)
MIC ([25]; A.B 6383, CRE clinical isolate, MHA agar, 37° C., 16-20 hours, read-out: MIC): 64 µg/mL (≈ 167 µM)
MIC ([26]; A.B 8476, CRE clinical isolate, MHA agar, 37° C., 16-20 hours, read-out: MIC): 64 µg/mL (≈ 167 µM)
MIC [27]: 128 µg/mL (≈ 334 µM)
